Results as given in patent publication US12227500B2, “Substituted pyrrolo[2,3-b]pyridines for suppressing toxic endoplasmic reticulum stress” (THE TRUSTEES OF COLUMBIA UNIVERSITY IN THE CITY OF NEW YORK, priority 2018, dated 2025).
Where two headings read alike, the source gives them in different places.

Assays:
[1] = test system: human ES motor neurons carrying the ALS-causing SOD1^A4V mutation; experiment: cells; assay type: cell-based; details: for EC50 / viability at 1 µM / Emax: Homo sapiens, Neuron, 72 h; for EC50 / Emax: CPA 33 μM; for EC50: read-out: EC50; for viability at 1 µM: CPA (33 μM) + compound (1 μM), read-out: Motor Neuron Survival, % untreated; for Emax: read-out: Emax (MN survival % untreated)
Method: Next, survival assays were performed with all the analogs at once to generate a low-variability dataset. All compounds were evaluated at concentrations ranging from 0.1-3.0 μM (five-point dilution) in three technical replicates and two biological replicates.

[2] = molecular target: HGK/MAP4K4 (Homo sapiens, UniProt O95819); experiment: Radiolabeled ATP kinase assay (Reaction Biology Corp.), HGK; assay type: biochemical; parameters: purchased Reaction Biology Corp; details: 10 μM ATP, read-out: % Enzyme Activity (relative to DMSO controls), HGK/MAP4K4, Data 1; for remaining activity at 0.025 µM: [Cmpd] 0.025 μM; for remaining activity at 0.1 µM: [Cmpd] 0.1 μM
Sequence of HGK/MAP4K4 (O95819 whole entry): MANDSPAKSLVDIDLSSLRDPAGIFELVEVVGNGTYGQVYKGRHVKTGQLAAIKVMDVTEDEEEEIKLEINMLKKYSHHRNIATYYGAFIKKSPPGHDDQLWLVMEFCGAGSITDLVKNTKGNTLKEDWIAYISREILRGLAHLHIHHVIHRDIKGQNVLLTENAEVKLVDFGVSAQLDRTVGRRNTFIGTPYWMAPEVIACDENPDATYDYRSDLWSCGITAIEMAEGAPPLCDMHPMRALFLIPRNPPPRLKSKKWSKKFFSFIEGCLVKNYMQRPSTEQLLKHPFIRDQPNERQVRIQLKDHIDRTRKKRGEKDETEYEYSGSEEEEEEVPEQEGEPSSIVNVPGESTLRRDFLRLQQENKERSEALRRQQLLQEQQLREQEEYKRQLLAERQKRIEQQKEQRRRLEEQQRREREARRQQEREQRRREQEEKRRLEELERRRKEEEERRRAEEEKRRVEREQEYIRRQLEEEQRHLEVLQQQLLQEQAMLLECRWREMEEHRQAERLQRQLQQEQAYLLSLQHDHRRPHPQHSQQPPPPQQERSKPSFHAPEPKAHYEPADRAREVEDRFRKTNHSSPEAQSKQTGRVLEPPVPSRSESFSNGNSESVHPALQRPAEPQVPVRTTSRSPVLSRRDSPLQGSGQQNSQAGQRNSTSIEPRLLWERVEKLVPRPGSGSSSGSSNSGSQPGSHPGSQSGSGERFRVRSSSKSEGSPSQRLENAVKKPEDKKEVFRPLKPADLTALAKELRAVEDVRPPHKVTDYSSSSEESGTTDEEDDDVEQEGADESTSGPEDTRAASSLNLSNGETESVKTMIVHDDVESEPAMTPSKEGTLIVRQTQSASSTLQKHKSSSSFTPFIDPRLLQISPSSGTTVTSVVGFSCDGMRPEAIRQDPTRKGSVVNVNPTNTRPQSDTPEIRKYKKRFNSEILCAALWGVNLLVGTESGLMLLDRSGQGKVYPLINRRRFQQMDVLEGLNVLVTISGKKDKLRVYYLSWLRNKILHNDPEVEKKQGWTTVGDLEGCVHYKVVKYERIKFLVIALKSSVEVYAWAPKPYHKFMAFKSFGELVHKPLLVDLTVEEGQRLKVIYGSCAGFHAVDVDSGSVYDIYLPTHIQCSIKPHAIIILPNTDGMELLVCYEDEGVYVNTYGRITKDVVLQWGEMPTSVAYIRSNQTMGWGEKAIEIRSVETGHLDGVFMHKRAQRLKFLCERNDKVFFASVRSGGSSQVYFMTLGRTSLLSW
Method: (§1) Meanwhile, the same analogs were analyzed in a radiolabeled ATP assay (10 μM ATP; Reaction Biology Corp.) to compare the extent to which they could inhibit the activity of HGK, MLK1, or MLK3 in a cell-free environment (Table S3 and S4).

[3] = molecular target: T1, MLK1/MAP3K9 (Homo sapiens, UniProt P80192); experiment: Radiolabeled ATP kinase assay (Reaction Biology Corp.), MLK1; assay type: biochemical; details: [Cmpd] 0.1 μM, 10 μM ATP
T1 construct: purchased Reaction Biology Corp
T1 sequence (P80192 whole entry): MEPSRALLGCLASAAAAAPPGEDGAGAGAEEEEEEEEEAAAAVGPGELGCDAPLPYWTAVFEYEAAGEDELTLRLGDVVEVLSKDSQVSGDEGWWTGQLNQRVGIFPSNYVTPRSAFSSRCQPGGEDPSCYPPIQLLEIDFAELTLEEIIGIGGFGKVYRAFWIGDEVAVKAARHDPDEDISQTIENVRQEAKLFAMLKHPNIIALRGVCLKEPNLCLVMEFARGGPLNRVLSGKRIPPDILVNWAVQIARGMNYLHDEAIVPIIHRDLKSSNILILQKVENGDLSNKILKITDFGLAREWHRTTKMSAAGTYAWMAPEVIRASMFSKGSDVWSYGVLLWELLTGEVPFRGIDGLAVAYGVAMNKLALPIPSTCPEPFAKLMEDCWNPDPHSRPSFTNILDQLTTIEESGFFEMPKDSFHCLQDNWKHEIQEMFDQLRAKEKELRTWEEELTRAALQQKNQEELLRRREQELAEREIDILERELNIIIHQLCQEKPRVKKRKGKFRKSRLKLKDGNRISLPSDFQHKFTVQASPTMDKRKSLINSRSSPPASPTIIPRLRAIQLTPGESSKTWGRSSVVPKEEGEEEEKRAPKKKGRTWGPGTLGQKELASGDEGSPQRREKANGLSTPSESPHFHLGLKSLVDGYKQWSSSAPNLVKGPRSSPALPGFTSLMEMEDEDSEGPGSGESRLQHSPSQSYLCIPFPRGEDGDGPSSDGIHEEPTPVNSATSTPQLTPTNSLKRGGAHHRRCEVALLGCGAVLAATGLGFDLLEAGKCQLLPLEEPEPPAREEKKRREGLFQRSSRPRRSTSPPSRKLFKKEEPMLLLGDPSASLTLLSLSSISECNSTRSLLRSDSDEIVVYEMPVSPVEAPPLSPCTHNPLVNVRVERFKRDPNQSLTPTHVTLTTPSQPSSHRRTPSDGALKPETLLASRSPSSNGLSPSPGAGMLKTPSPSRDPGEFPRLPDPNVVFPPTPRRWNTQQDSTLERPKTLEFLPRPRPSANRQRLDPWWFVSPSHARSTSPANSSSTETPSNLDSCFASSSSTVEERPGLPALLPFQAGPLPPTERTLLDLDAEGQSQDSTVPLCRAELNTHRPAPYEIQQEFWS
Method: as §1

[4] = molecular target: T2, MLK3/MAP3K11 (Homo sapiens, UniProt Q16584); experiment: Radiolabeled ATP kinase assay (Reaction Biology Corp.), MLK3; assay type: biochemical; details: [Cmpd] 0.1 μM; 10 μM ATP
T2 construct: purchased Reaction Biology Corp
T2 sequence (Q16584 whole entry): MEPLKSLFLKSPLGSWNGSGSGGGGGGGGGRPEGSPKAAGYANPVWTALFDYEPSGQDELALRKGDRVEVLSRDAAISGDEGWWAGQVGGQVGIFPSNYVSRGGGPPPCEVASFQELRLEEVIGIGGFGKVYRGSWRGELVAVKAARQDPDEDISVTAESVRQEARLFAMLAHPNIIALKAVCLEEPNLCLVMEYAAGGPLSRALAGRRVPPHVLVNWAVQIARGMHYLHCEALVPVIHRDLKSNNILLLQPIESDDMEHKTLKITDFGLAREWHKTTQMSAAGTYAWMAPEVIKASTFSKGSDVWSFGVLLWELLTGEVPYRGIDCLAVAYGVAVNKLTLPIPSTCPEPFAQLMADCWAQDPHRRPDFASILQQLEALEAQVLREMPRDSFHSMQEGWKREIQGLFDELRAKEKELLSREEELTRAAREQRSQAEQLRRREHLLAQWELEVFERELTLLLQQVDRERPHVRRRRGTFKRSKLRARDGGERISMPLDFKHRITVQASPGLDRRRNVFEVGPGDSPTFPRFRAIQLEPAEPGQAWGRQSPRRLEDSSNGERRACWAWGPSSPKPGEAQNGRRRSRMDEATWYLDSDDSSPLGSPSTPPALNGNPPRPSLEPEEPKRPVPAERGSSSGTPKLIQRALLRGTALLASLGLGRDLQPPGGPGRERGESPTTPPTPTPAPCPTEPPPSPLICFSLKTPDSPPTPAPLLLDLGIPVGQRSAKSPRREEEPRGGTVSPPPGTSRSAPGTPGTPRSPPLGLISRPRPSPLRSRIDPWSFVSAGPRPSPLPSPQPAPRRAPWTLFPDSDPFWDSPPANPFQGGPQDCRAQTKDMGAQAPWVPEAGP
Method: as §1

[5] = read-out: % Enzyme Activity Remaining (relative to DMSO controls), MLK1/MAP3K9, Data 1
[6] = read-out: % Enzyme Activity Remaining (relative to DMSO controls), MLK1/MAP3K9, Data 2

remaining activity at 0.025 µM [2] [%] | remaining activity at 0.1 µM [2] [%] | remaining activity at 0.1 µM [3, 5] [%] | remaining activity at 0.1 µM [3, 6] [%] | % Enzyme Activity Remaining (relative to DMSO controls), MLK3/MAP3K11, Data 1 [4] [%] | % Enzyme Activity Remaining (relative to DMSO controls), MLK3/MAP3K11, Data 2 [4] [%] | Molecule | EC50 [1] [nM] | viability at 1 µM [1] [%] | Emax [1] [%] | rescue of MNs in the CPA survival assay ([1]; FIG. 9)
57.3 | 20 | 54.5 | 53.6 | 51.92 | 49.61 | COc1ccc(-c2c[nH]c3ncc(-c4ccc(CN5CCN(C)CC5)cc4)cc23)cc1C [Compound 7aq, 3-(4-Methoxy-3-methylphenyl)-5-(4-((4-methylpiperazin-1-yl)methyl)phenyl)-1H-pyrrolo[2,3-b]pyridine] |  |  |  | 
86.1 | 58.8 | 74.2 | 75.1 | 63.66 | 64.82 | CN1CCN(Cc2ccc(-c3cnc4[nH]cc(-c5cc6ccccc6[nH]5)c4c3)cc2)CC1 [Compound 7a, 3-(1H-Indol-2-yl)-5-(4-((4-methylpiperazin-1-yl)methyl)phenyl)-1H-pyrrolo[2,3-b]pyridine] |  |  |  | 
 |  |  |  |  |  | NG-25 [reference compound] |  |  |  | unable to rescue MNs
 |  |  |  |  |  | Fc1cccc(-c2c[nH]c3ncc(-c4ccc(CN5CCC(N6CCCCC6)CC5)cc4)cc23)c1 [Compound 12g, 5-(4-([1,4′-Bipiperidin]-1′-ylmethyl)phenyl)-3-(3-fluorophenyl)-1H-pyrrolo[2,3-b]pyridine] | 50 |  | 89.3 | 
102 | 85.5 | 95 | 95.5 | 93.68 | 88.60 | Cc1ccc(S(=O)(=O)n2cc(-c3ccc4[nH]ccc4c3)c3cc(-c4ccc(C=O)cc4)cnc32)cc1 [Compound 11, 4-(3-(1H-Indol-5-yl)-1-tosyl-1H-pyrrolo[2,3-b]pyridin-5-yl)benzaldehyde] |  |  |  | 
 |  |  |  |  |  | CC(C)(C)N1CCN(Cc2ccc(-c3cnc4[nH]cc(-c5cccc(F)c5)c4c3)cc2)CC1 [Compound 12j, 5-(4-((4-(tert-Butyl)piperazin-1-yl)methyl)phenyl)-3-(3-fluorophenyl)-1H-pyrrolo[2,3-b]pyridine] | 50 |  | 98.5 | 
72.8 | 51.5 | 56.2 | 46.5 | 52.18 | 46.74 | c1cc2cc(-c3c[nH]c4ncc(-c5ccc(CN6CC7CCC(C6)O7)cc5)cc34)ccc2[nH]1 [Compound 12a, 3-(4-(3-(1H-Indol-5-yl)-1H-pyrrolo[2,3-b]pyridin-5-yl)benzyl)-8-oxa-3-azabicyclo[3.2.1]octane] |  |  |  | 
 |  | 55.9 | 58.5 | 45.87 | 42.66 | CN1CCN(Cc2ccc(-c3cnc4[nH]cc(-c5cc6ccccc6s5)c4c3)cc2)CC1 [Compound 7g, 3-(Benzo[b]thiophen-2-yl)-5-(4-((4-methylpiperazin-1-yl)methyl)phenyl)-1H-pyrrolo[2,3-b]pyridine] |  |  |  | 
4.88 | 1.23 | 56.2 | 58.6 | 38.87 | 39.87 | CN1CCN(Cc2ccc(-c3cnc4[nH]cc(-c5cccc(O)c5)c4c3)cc2)CC1 [Compound 7r, 3-(5-(4-((4-Methylpiperazin-1-yl)methyl)phenyl)-1H-pyrrolo[2,3-b]pyridin-3-yl)phenol] |  |  |  | 
103 | 86.6 | 96.4 | 92.6 | 95.75 | 93.75 | CN1CCN(Cc2ccc(-c3cnc4[nH]cc(-c5cc(C(F)(F)F)cc(C(F)(F)F)c5)c4c3)cc2)CC1 [Compound 7aj, 3-(3,5-Bis(trifluoromethyl)phenyl)-5-(4-((4-methylpiperazin-1-yl)methyl)phenyl)-1H-pyrrolo[2,3-b]pyridine] |  |  |  | 
63.6 | 20.6 | 77.7 | 77.5 | 46.91 | 44.55 | CN1CCN(Cc2ccc(-c3cnc4[nH]cc(-c5cccc(C(=O)O)c5)c4c3)cc2)CC1 [Compound 7j, 3-(5-(4-((4-Methylpiperazin-1-yl)methyl)phenyl)-1H-pyrrolo[2,3-b]pyridin-3-yl)benzoic acid] |  |  |  | 
35.6 | 6.76 | 54.2 | 52.8 | 70.05 | 68.91 | COc1cc(-c2c[nH]c3ncc(-c4ccc(CN5CCN(C)CC5)cc4)cc23)cc(OC)c1OC [Compound 7ap, 5-(4-((4-Methylpiperazin-1-yl)methyl)phenyl)-3-(3,4,5-trimethoxyphenyl)-1H-pyrrolo[2,3-b]pyridine] |  |  |  | 

Molecule | remaining activity at 0.025 µM [2] [%] | remaining activity at 0.1 µM [2] [%] | remaining activity at 0.1 µM [3, 5] [%] | remaining activity at 0.1 µM [3, 6] [%] | % Enzyme Activity Remaining (relative to DMSO controls), MLK3/MAP3K11, Data 1 [4] [%] | % Enzyme Activity Remaining (relative to DMSO controls), MLK3/MAP3K11, Data 2 [4] [%] | EC50 [1] [nM] | viability at 1 µM [1] [%] | Emax [1] [%] | rescue of MNs in the CPA survival assay ([1]; FIG. 9)
CN1CC2CCC(C1)N2Cc1ccc(-c2cnc3[nH]cc(-c4ccc5[nH]ccc5c4)c3c2)cc1 [Compound 12c, 3-(1H-Indol-5-yl)-5-(4-((3-methyl-3,8-diazabicyclo[3.2.1]octan-8-yl)methyl)phenyl)-1H-pyrrolo[2,3-b]pyridine] | 92.7 | 84.2 |  |  |  |  | 694 | 43.7 | 43.7 | 
CN1C2CCC1CN(Cc1ccc(-c3cnc4[nH]cc(-c5ccc6[nH]ccc6c5)c4c3)cc1)C2 [Compound 12b, 3-(1H-Indol-5-yl)-5-(4-((8-methyl-3,8-diazabicyclo[3.2.1]octan-3-yl)methyl)phenyl)-1H-pyrrolo[2,3-b]pyridine] | 69 | 34.5 |  |  |  |  | 1960 | 25.2 | 72.6 | 
CN1C2CCC1CN(Cc1ccc(-c3cnc4[nH]cc(-c5cccc6[nH]ncc56)c4c3)cc1)C2 [Compound 12d, 4-(5-(4-((8-Methyl-3,8-diazabicyclo[3.2.1]octan-3-yl)methyl)phenyl)-1H-pyrrolo[2,3-b]pyridin-3-yl)-1H-indazole] | 3.17 | -0.29 |  |  |  |  | 301 | 109 | 143 | 
CC(C)Oc1ccc(-c2c[nH]c3ncc(-c4ccc(CN5CCN(C)CC5)cc4)cc23)cc1 [Compound 7q, 3-(4-Isopropoxyphenyl)-5-(4-((4-methylpiperazin-1-yl)methyl)phenyl)-1H-pyrrolo[2,3-b]pyridine] |  |  | 94.1 | 95.4 | 91.91 | 89.69 | 740 | 20.6 | 21.5 | 
